This note sets out measurements from US7635696B2, “Isoxazoline-indole derivatives with an improved antipsychotic and anxiolytic activity” (Janssen Pharmaceutica N.V., priority 2004, dated 2009).

The target of one experiment is T1, Human 5HT1A receptor (Homo sapiens, UniProt P08908).
T1 construct: expressed in transfected cells; host or cells: L929 cells (stably transfected)
T1 sequence (P08908 1-422): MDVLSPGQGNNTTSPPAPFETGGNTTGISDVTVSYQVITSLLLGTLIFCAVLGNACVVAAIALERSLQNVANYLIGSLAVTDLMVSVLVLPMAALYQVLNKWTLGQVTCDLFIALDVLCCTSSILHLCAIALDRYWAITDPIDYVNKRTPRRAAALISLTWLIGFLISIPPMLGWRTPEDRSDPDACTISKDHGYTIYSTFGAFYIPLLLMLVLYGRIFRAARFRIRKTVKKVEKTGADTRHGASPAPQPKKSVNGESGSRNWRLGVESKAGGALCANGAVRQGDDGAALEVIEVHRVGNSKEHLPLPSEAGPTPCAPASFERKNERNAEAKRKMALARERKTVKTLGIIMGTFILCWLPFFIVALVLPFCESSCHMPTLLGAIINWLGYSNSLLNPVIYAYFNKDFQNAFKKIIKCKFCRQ
As to the kind of experiment: Binding experiment for 5-HT1A receptor ([3H]8OHDPAT). To be noted: transfected L929 cell membranes, [3H]8OHDPAT. The procedure, abridged: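 Competition binding with 5 nmol/L [3H]8OHDPAT (diluted stock) on membranes from L929 cells stably transfected with human 5HT1A, in 50 mM Tris-HCl/4 mM CaCl2, pH 7.7, 30 min at 37 °C. Non-specific binding defined with 10^−6 mol/L spiroxatrine; bound radioactivity measured by filtration and scintillation counting.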

Experiment [1] addresses T2, Human Dopamine D2L receptor (Homo sapiens, UniProt P14416).
T2 construct: expressed in transfected cells; host or cells: CHO cells
As to the kind of experiment: Binding experiment for dopamine D2 receptor ([3H]Spiperone). The following applies: D2L-transfected CHO cell membranes. The procedure, abridged: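 Membranes from CHO cells transfected with human D2L receptor incubated 30 min at 37 °C with [3H]spiperone (diluted to 2 nmol/L) in Tris-HCl buffer pH 7.7 with NaCl, CaCl2, MgCl2, KCl. Nonspecific binding with 10^−6 mol/L butaclamol; bound radioactivity by filtration and scintillation counting, competition curves from % specific binding.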

The target in experiment [2] is T3, Human Dopamine D3 receptor (Homo sapiens, UniProt P35462).
T3 construct: expressed in transfected cells; host or cells: CHO cells
T3 sequence (P35462 whole entry): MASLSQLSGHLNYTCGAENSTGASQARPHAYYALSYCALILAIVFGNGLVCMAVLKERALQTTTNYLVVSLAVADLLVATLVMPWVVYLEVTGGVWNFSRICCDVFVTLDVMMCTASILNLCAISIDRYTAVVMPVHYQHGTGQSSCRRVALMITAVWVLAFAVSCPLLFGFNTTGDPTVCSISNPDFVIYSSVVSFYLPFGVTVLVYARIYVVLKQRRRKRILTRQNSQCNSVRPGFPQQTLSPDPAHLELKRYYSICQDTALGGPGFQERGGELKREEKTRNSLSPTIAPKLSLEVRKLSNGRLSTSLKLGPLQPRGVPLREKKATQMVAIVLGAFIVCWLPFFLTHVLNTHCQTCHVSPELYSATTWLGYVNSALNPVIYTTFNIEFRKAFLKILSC
As to the kind of experiment: Binding experiment for dopamine D3 receptor ([125I]Iodosulpride). The following applies: transfected CHO cell membranes. The procedure:
The interaction of the compounds of Formula (I) with dopamine-receptors, h5HT-transporter and h5HT1A receptor was assessed in in vitro radioligand binding experiments. In general, a low concentration of a radioligand with a high binding affinity for a particular receptor or transporter is incubated with a sample of a tissue preparation enriched in a particular receptor or transporter or with a preparation of cells expressing cloned human receptors in a buffered medium. During the incubation, the radioligand binds to the receptor or transporter. When equilibrium of binding is reached, the receptor bound radioactivity is separated from the non-bound radioactivity, and the receptor- or transporter-bound activity is counted. The interaction of the test compounds with the receptor is assessed in competition binding experiments. Various concentrations of the test compound are added to the incubation mixture containing the receptor- or transporter preparation and the radioligand. The test compound in proportion to its binding affinity and its concentration inhibits binding of the radioligand.
Human Dopamine D3 receptor-transfected CHO cells were collected by scraping into ice-cold Tris-HCl buffer (50 mM, pH 7.4). The suspension was centrifuged (23 500×g, 10 min, 4° C.) and pellets stored at −70° C. until required. They were then thawed and briefly homogenised using an Ultra-Turrax T25 homogeniser prior to dilution to an appropriate protein concentration optimised for specific and non-specific binding. [^125I]Iodosulpride (Amersham, specific activity 2000 Ci/mmol) was diluted in Tris-HCl assay buffer containing NaCl, CaCl2, MgCl2, KCl and BSA (50, 120, 2, 1, 5 mM, 0.1% respectively, adjusted to pH 7.7 with HCl) at a concentration of 2 nmol/L. Prepared radioligand (20 μl) was incubated (60 min, RT) and with 20 μl of either the 10% DMSO control, Risperidone (10^−6 mol/L final concentration), or compound of interest, then with membrane preparations (80 μl). Overnight incubation followed after addition of WGA-coated PVT SPA beads (250 μl; Amersham) and membrane-bound counts measured in a Wallac Microbeta. % Specific bound and competition binding curves were calculated using S-Plus software (Insightful).

In another experiment the target is T4, human 5HT transporter (Homo sapiens, UniProt P31645).
T4 construct: host or cells: HEK cells
T4 sequence (P31645 whole entry): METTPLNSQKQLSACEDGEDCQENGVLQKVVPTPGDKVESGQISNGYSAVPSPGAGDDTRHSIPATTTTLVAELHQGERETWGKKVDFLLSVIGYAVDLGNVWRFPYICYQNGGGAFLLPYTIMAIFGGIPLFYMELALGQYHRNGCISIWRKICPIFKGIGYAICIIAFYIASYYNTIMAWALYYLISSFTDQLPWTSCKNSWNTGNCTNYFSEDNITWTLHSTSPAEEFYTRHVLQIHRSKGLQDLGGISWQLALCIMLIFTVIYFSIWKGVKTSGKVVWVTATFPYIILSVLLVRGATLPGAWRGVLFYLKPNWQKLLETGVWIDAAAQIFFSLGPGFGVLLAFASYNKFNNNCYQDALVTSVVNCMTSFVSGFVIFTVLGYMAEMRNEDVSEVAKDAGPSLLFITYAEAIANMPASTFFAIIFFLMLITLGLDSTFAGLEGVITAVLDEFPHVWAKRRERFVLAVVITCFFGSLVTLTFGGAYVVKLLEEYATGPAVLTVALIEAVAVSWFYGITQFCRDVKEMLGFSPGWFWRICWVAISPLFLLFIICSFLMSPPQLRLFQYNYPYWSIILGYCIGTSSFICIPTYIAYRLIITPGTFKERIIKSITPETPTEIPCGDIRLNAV
As to the kind of experiment: Binding experiment for 5-HT transporter ([3H]Paroxetine). The following applies: transfected HEK cell membranes, [3H]Paroxetine. The procedure, abridged: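 Competition binding on membranes from HEK cells transfected with human 5HT transporter, using [3H]paroxetine (prepared at 5 nmol/L) in 50 mM Tris-HCl, 120 mM NaCl, 5 mM KCl, pH 7.4. Incubation 60 min at 25 °C; nonspecific binding with imipramine 10^−6 mol/L; filtration and scintillation counting give % specific binding curves.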

T2 sequence (P14416 whole entry): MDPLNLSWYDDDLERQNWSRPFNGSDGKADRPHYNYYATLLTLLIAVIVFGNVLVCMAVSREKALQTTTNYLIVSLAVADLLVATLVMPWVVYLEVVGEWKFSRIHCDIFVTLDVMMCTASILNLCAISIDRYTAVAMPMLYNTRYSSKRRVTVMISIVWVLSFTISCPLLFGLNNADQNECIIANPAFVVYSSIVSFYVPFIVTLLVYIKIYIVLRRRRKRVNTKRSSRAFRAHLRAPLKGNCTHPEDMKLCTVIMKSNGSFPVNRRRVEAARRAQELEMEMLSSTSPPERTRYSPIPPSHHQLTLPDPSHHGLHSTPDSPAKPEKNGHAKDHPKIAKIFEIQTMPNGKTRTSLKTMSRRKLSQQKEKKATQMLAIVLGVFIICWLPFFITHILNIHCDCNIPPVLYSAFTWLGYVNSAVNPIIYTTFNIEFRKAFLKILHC

`Fc1ccc2[nH]cc(C3=CCN(CC4ON=C5c6cc7c(cc6OCC54)OCCO7)CC3)c2c1` (single isomer, unassigned) [Compound 28]: the “pIC50 5-HT1A” value on Human 5HT1A receptor is listed as 8.6. In addition, the “pIC50 D2” value in experiment [1] was determined as 6.3. The “pIC50 D3” value in experiment [2] is reported as 6.2. Moreover, the “pIC50 5HTT” value at human 5HT transporter is reported as 7.8.

Consider `Fc1ccc2[nH]cc(C3CCN(CC4ON=C5c6cc7c(cc6OCC54)OCCO7)CC3)c2c1` (single isomer, unassigned) [Compound 29], for which the “pIC50 5-HT1A” value on Human 5HT1A receptor is listed as 8.8. Further, in experiment [1], the “pIC50 D2” value is on record as 6.6. The “pIC50 D3” value in experiment [2] amounted to 6.5. The “pIC50 5HTT” value on human 5HT transporter is reported as 6.9.
